Patent US20110224197A1, “PYRIMIDINES AND PYRIDINES USEFUL AS INHIBITORS OF PROTEIN KINASES” (Vertex Pharmaceuticals Incorporated, priority 2008, published 2011)

What was measured:
CRMP2 = CRMP2 Phosphorylation Assay; assay type: cell-based, rat; settings: E16 hippocampal neurons treated for seven days
Method: GSK-3 phosphorylation regulates CRMP2 which is involved in the control of axon outgrowth and branching (Yoshimura et al., 2005 Cell, Kim et al. 2006 Neuron). Phosphorylation of CRMP2 by GSK-3 reduces CRMP2 binding to microtubules and thereby reduces axon elongation and branching. Conversely, inhibition of GSK-3, especially at levels that selectively affect TYR residue autophosphorylation, enhances these phenotypes. Compounds are tested in E16 rat hippocampal or cortical neurons to determine the ability to increase the level of axonal branching.
1 mg/ml stock of PDL is diluted into 100 μg/mL in DI water. The glass coverslips are coated for at least 1 hour at 37° C. prior to doing the dissection. PDL is aspirated and the plates are rinsed with PBS and air-dried in hood.
Cortical or hippocampal lobes are combined with 9 mL of Base media (Neurobasal+Pen/Strep) and put on ice. 1 mL of 10× trypsin solution is added and the Mixture is swirled gently. The tissue is then digested via incubation in a 37° C. waterbath for 20 minutes. After 20 minutes, 10 μL/mL DNase (100 μL DNase) is added and the mixture is incubated for another 5 minutes.
The cells are spun at 1000 rpm for 1 minute. The enzyme solution is then removed without removing any of the brain fragments sitting on the bottom. […] The cells are counted in a hemacytometer and seeded at 50,000 cells/well in a 12 well plate. […]

GSK-3α/β pTYR = test: pTYR biomarker analysis in brain, Post Stroke Model II; assay type: in vivo, rat; settings: all doses, termination of study
Method: (§1) To track the activity of Compound I-37 in the CNS of rats subjected to MCAO, brains were removed and protein lysate was obtained (as described herein) from both vehicle treated and compound treated animals at the termination of the study. Lysates were analyzed by Western blot and probed for GSK-3α/β pTYR levels.
(§2) Protein lysate is obtained from the brains of all vehicle and compound-treated animals and is processed for biomarker analysis of GSK3α/β pTYR and β-catenin by Western blot assay to ensure compound activity on the target.

spinal cord injury model = test: Spinal Cord Injury Model; settings: in vivo
Method: Compound I-37 was tested in a spinal cord injury model similar to the one described in Dill, et al, (2008) “Inactivation of Glycogen Synthase Kinase 3 Promotes Axonal Growth and Recover in CNS” The Journal of Neuroscience, 28(36): 8914-8928.

β-catenin = β-catenin in brain, Post Stroke Model II; assay type: in vivo, rat; settings: all doses
Method: as §1, §2

Cc1nc(-c2ccccc2Cl)nc(Nc2n[nH]c3ncc(F)cc23)c1C [Compound I-37, N-(2-(2-chlorophenyl)-5,6-dimethylpyrhnidin-4-yl)-5-fluoro-1H-pyrazolo[3,4-b]pyridin-3-amine]
Inhibition of GSK-3 phosphorylation of substrate CRMP-2 (CRMP2): correlated with inhibition of GSK-3 pTYR
pTYR signal compared to vehicle treated rats (GSK-3α/β pTYR): significant reduction
functional recovery (spinal cord injury model): did not appear to improve functional recovery
induction of β-catenin (β-catenin): no induction
